Where a name gives a salt, the structure may show the parent alone. Read-outs that look alike come from different tables or passages of the source.
Key:
[1] = tested on: HeLa cells; assay: Proliferation assay (HeLa cell line); assay type: cell-based; settings: read-out: Biological Assay 2: Proliferation assay (HeLa cell line) median IC50
Method: Cultivated tumor cells (cells were ordered from ATCC, except HeLa-MaTu and HeLa-MaTu-ADR, which were ordered from EPO-GmbH, Berlin) were plated at a density of 1000 to 5000 cells/well, depending on the growth rate of the respective cell line, in a 96-well multititer plate in 200 μL of their respective growth medium supplemented 10% fetal calf serum. After 24 hours, the cells of one plate (zero-point plate) were stained with crystal violet (see below), while the medium of the other plates was replaced by fresh culture medium (200 μl), to which the test substances were added in various concentrations (0 μM, as well as in the range of 0.001-10 μM; the final concentration of the solvent dimethyl sulfoxide was 0.5%). The cells were incubated for 4 days in the presence of test substances. Cell proliferation was determined by staining the cells with crystal violet: the cells were fixed by adding 20 μl/measuring point of an 11% glutaric aldehyde solution for 15 minutes at room temperature. After three washing cycles of the fixed cells with water, the plates were dried at room temperature. The cells were stained by adding 100 μl/measuring point of a 0.1% crystal violet solution (pH 3.0). After three washing cycles of the stained cells with water, the plates were dried at room temperature. The dye was dissolved by adding 100 μl/measuring point of a 10% acetic acid solution. […] The change of cell number, in percent, was calculated by normalization of the measured values to the aborbtion values of the zero-point plate (=0%) and the absorbtion of the untreated (0 μm) cells (=100%). The IC50 values were determined by means of a 4 parameter fit using the company's own software.

[2] = biological target: catalytic domain of human Bub1 (amino acids 704-1085) (Homo sapiens (Human), UniProt O43683); assay: Bub1 kinase assay (TR-FRET); assay type: biochemical; settings: 10 μM ATP, 1 μM peptide substrate; read-out: Biological Assay 1: Bub1 kinase assay median IC50
catalytic domain of human Bub1 (amino acids 704-1085), sequence (O43683 704-1085): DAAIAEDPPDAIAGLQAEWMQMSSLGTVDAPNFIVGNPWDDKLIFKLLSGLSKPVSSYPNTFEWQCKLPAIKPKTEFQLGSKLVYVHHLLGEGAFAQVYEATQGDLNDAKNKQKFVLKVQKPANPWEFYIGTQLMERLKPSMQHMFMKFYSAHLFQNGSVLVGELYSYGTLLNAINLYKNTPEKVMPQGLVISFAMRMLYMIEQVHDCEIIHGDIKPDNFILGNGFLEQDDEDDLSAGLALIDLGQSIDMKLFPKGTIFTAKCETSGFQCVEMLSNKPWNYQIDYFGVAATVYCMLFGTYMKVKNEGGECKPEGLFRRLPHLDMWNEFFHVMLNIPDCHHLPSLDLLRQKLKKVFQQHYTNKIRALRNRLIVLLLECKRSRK
Procedure, shortened: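 Phosphoserine product detected by TR-FRET (Eu-labeled anti-mouse IgG/anti-phosphoserine antibody to streptavidin-XL665) after 1 h at 22 °C. IC50 from 4-parameter logistic fit.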

[3] = Homo sapiens, 96 h, 4 days, crystal violet

Structure (SMILES) | IC50 ([1]; 4 days, crystal violet) [nM] | IC50 [2] [nM] | IC50 ([1]; Homo sapiens, 96 h) [nM] | IC50 [1, 3] [nM]
CNC(=O)c1ccc(Cn2nc(-c3ncc(OC)c(Nc4ccncc4)n3)c3ccccc32)c(Cl)c1 [Example 29-2, 3-chloro-4-({3-[5-methoxy-4-(pyridin-4-ylamino)pyrimidin-2-yl]-1H-indazol-1-yl}methyl)-N-methylbenzamide] | ≥ 10000 | 8.9 | – | –
COc1cnc(-c2nn(Cc3ccccc3Br)c3ccccc23)nc1Nc1ccncc1 [Example 2-21-1, 2-[1-(2-bromobenzyl)-1H-indazol-3-yl]-5-methoxy-N-(pyridin-4-yl)pyrimidin-4-amine] | – | 12 | ≥ 10000 | –
CCCc1ccc(Cn2nc(-c3ncc(OC)c(Nc4ccncc4C(N)=O)n3)c3ccccc32)cc1 [Example 25-2] | ≥ 10000 | 5.4 | – | –
CCOc1cc(F)c(Cn2nc(-c3ncc(O)c(N(c4ccncc4)C(F)F)n3)c3ccccc32)c(F)c1 [Example 10-3, 4-[(difluoromethyl) (pyridin-4-yl)amino]-2-[1-(4-ethoxy-2,6-difluorobenzyl)-1H-indazol-3-yl]pyrimidin-5-ol] | – | 360 | – | 9600
COc1cnc(-c2nn(Cc3c(Cl)ccc(CO)c3Cl)c3ccccc23)nc1Nc1ccncc1 [Example 15-5, [2,4-dichloro-3-({3-[5-methoxy-4-(pyridin-4-ylamino)pyrimidin-2-yl]-1H-indazol-1-yl}methyl)phenyl] methanol hydrochloride (1:1)] | 9900 | 12 | – | –
COc1cnc(-c2nn(Cc3c(F)cc(F)cc3F)c3ccccc23)nc1Nc1ccncc1 [Example 2-17-1, 5-methoxy-N-(pyridin-4-yl)-2-[1-(2,4,6-trifluorobenzyl)-1H-indazol-3-yl]pyrimidin-4-amine] | – | 8.8 | ≥ 10000 | –
COc1cnc(-c2nn(Cc3c(Cl)ccc(C(=O)N4CCOCC4)c3Cl)c3ccccc23)nc1Nc1ccncc1 [Example 20-5, [2,4-dichloro-3-({3-[5-methoxy-4-(pyridin-4-yla-mino)pyrimidin-2-yl]-1H-indazol-1-yl}methyl)phenyl] (morpholin-4-yl)methanone] | – | 8800 | – | 5900
COc1ccc(Cn2nc(-c3ncc(OC)c(Nc4ccncc4C(F)(F)F)n3)c3ccccc32)cc1 [Example 27-1, 5-methoxy-2-[1-(4-methoxybenzyl)-1H-indazol-3-yl]-N-[3-(trifluoromethyl)pyridin-4-yl]pyrimidin-4-amine] | – | 55 | 3900 | –
CCOc1cc(F)c(Cn2nc(-c3ncc(OCCO)c(Nc4ccncc4)n3)c3ccccc32)c(F)c1 [Example 15-3, 2-({2-[1-(4-ethoxy-2,6-difluorobenzyl)-1H-indazol-3-yl]-4-(pyridin-4-ylamino)pyrimidin-5-yl}oxy)ethanol hydrochloride (1:1)] | 1700 | 5.7 | – | –
COc1cnc(-c2nn(Cc3ccc(S(=O)(=O)NC4CC4)cc3)c3ccccc23)nc1Nc1ccncc1 [Example 2-37-1, N-cyclopropyl-4-({3-[5-methoxy-4-(pyridin-4-ylamino)pyrimidin-2-yl]-1H-indazol-1-yl}methyl)benzenesulfonamide] | – | 71 | – | ≥ 10000
COc1ccc(Cn2nc(-c3ncc(OCC(F)(F)F)c(Nc4ccncc4)n3)c3ccccc32)cc1 [Example 11-1, 2-[1-(4-methoxybenzyl)-1H-indazol-3-yl]-N-(pyridin-4-yl)-5-(2,2,2-trifluoroethoxy)pyrimidin-4-amine] | – | 18 | 8100 | –
COc1cnc(-c2nn(Cc3cc(C)c(C)cc3Cl)c3ccccc23)nc1Nc1ccncc1 [Example 2-3-1, 2-[1-(2-chloro-4,5-dimethylbenzyl)-1H-indazol-3-yl]-5-methoxy-N-(pyridin-4-yl)pyrimidin-4-amine] | – | 4.4 | – | 3000
COc1cnc(-c2nn(Cc3c(F)cc(C(N)=O)cc3F)c3ccccc23)nc1Nc1ccncc1 [Example 2-50-1, 3,5-difluoro-4-({3-[5-methoxy-4-(pyridin-4-ylamino)pyrimidin-2-yl]-1H-indazol-1-yl}methyl)benzamide] | – | 11 | ≥ 10000 | –
COc1cnc(-c2nn(Cc3ccc(I)cc3F)c3ccccc23)nc1Nc1ccncc1 [Example 2-20-1, 2-[1-(2-fluoro-4-iodobenzyl)-1H-indazol-3-yl]-5-methoxy-N-(pyridin-4-yl)pyrimidin-4-amine] | – | 11 | 7300 | –
COc1cnc(-c2nn(Cc3c(F)cc(O)cc3F)c3ccccc23)nc1Nc1ccncc1C(N)=O [Example 25-4] | 10000 | 5.03 | – | –
COc1cnc(-c2nn(Cc3c(F)cc(OCCOC(C)=O)cc3F)c3ccccc23)nc1Nc1ccncc1 [Example 2-51-1, 2-[3,5-difluoro-4-({3-[5-methoxy-4-(pyridin-4-ylamino)pyrimidin-2-yl]-1H-indazol-1-yl}methyl)phenoxy]ethyl acetate] | – | 10 | 2700 | –
COc1cnc(-c2nn(Cc3ccc(F)c(OC)c3Cl)c3ccccc23)nc1Nc1ccncc1 [Example 2-13-1, 2-[1-(2-chloro-4-fluoro-3-methoxybenzyl)-1H-indazol-3-yl]-5-methoxy-N-(pyridin-4-yl)pyrimidin-4-amine] | – | 8 | – | 3800
COc1cnc(-c2nn(Cc3ccc(C(=O)OC(C)(C)C)cc3Cl)c3ccccc23)nc1Nc1ccncc1 [Example 2-40-1, tert-butyl 3-chloro-4-({3-[5-methoxy-4-(pyridin-4-ylamino)pyrimidin-2-yl]-1H-indazol-1-yl}methyl)benzoate] | – | 120 | – | 5600
NC(=O)c1cnccc1Nc1nc(-c2nn(Cc3ccccc3F)c3ccccc23)ncc1OCCO [Example 13-5, 4-({2-[1-(2-fluorobenzyl)-1H-indazol-3-yl]-5-(2-hydroxyethoxy)pyrimidin-4-yl}amino)pyridine-3-carboxamide] | – | 6.5 | – | ≥ 10000
CCOc1cc(F)c(Cn2nc(-c3ncc(OC)c(Nc4ccncc4)n3)c3ccccc32)c(OC)c1 [Example 2-53-1] | 3400 | 83 | – | –
OC[C@H](O)COc1cnc(-c2nn(Cc3ccccc3F)c3ccccc23)nc1Nc1ccncc1 [Example 15-2, (2S)-3-({2-[1-(2-fluorobenzyl)-1H-indazol-3-yl]-4-(pyridin-4-ylamino)pyrimidin-5-yl}oxy)propane-1,2-diol hydrochloride (1:1)] | – | 5.5 | ≥ 10000 | –
CCOc1cc(F)c(Cn2nc(-c3nccc(N(C(C)=O)c4ccncc4)n3)c3ccccc32)c(F)c1 [Example 16-1, N-{2-[1-(4-ethoxy-2,6-difluorobenzyl)-1H-indazol-3-yl]pyrimidin-4-yl}-N-(pyridin-4-yl)acetamide] | – | 170 | – | 2800
COc1cnc(-c2nn(Cc3ccc(C#N)cc3F)c3ccccc23)nc1Nc1ccncc1 [Example 2-33-1, 3-fluoro-4-({3-[5-methoxy-4-(pyridin-4-ylamino)pyrimidin-2-yl]-1H-indazol-1-yl}methyl)benzonitrile] | – | 38 | – | ≥ 10000
COc1cnc(-c2nn(Cc3c(Cl)ccc(C(=O)N(C)C)c3Cl)c3ccccc23)nc1Nc1ccncc1 [Example 20-3, 2,4-dichloro-3-({3-[5-methoxy-4-(pyridin-4-yla-mino)pyrimidin-2-yl]-1H-indazol-1-yl}methyl)-N,N-dimethyl-benzamide] | – | 1200 | 4100 | –
CCOc1cc(F)c(Cn2nc(-c3ncc(OCCNC(=O)OC(C)(C)C)c(Nc4ccncc4)n3)c3ccccc32)c(F)c1 [Example 4-23, tert-butyl [2-({2-[1-(4-ethoxy-2,6-difluorobenzyl)-1H-indazol-3-yl]-4-(pyridin-4-ylamino)pyrimidin-5-yl}oxy)ethyl]carbamate] | – | 9.3 | – | 4900
COc1cnc(-c2nn(Cc3c(F)c(F)c(OCC(F)(F)F)c(F)c3F)c3ccccc23)nc1Nc1ccncc1 [Example 2-15-1, 5-methoxy-N-(pyridin-4-yl)-2-{1-[2,3,5,6-tetrafluoro-4-(2,2,2-trifluoroethoxy)benzyl]-1H-indazol-3-yl}pyrimidin-4-amine] | – | 38 | – | 4700
CCOc1cc(F)c(Cn2nc(-c3nccc(N(C(=O)COCCOC)c4ccncc4)n3)c3ccccc32)c(F)c1 [Example 16-4, N-{2-[1-(4-ethoxy-2,6-difluorobenzyl)-1H-indazol-3-yl]pyrimidin-4-yl}-2-(2-methoxyethoxy) N-(pyridin-4-yl)acetamide] | – | 20 | – | 2700
COc1ccc(Cn2nc(-c3ncc(OC)c(Nc4cc(F)nc(F)c4)n3)c3ccccc32)cc1 [Example 34-2, N-(2,6-difluoropyridin-4-yl)-5-methoxy-2-[1-(4-methoxybenzyl)-1H-indazol-3-yl]pyrimidin-4-amine] | – | 6200 | ≥ 10000 | –
